# Patent US20090137612A1, “Treatment with combined use of oxypurines and ascorbate to prevent and mitigate iron-catalized oxidative damage in Alzheimer's disease and other neurodegenerative disorders” (priority 2007, published 2009)
# Key:
# [1] = Inhibition of o-dianisidine oxidation induced by reaction of ferrous sulfate with hydrogen peroxide (colorimetric, 460 nm); format: biochemical
# Method: (§1) All chemicals used in the following first 4 EXAMPLES for this invention were of analytical quality. A colorimeter was used to detect peroxidations of o-dianisidine, 9 mg/dL, as chromogenic hydrogen donor when oxidized, with its absorbance measured at 460 nm in saline solutions (140 mM NaCl, buffered by 3 mM phosphate salts at pH 7.4). Ferrous sulfate or human hemoglobin was added to control and to test solutions containing uric acid or ascorbic acid shortly before the addition of hydrogen peroxide, with oxidized molecules of dianisidine measured promptly. The saline solutions were mimetic of cerebrospinal fluid except devoid of possible confounding other molecules.
# Uric Acid Inhibition of Substrate Oxidations Induced by Reaction of Ferrous Sulfate (9.8 Micromolar) with 20 Micromolar Hydrogen Peroxide
# Comment: All incubations were done at 25-28° Celsius.
# Ascorbic Acid Inhibition at 1.6 mg/dl of Substrate Oxidation Induced by Reaction of Ferrous Sulfate (9.8 Micromolar) with 20 Micromolar Hydrogen Peroxide
# human hemoglobin = human hemoglobin (Homo sapiens, UniProt P68871+P69905); assay: Inhibition of o-dianisidine oxidation by human hemoglobin in reaction with hydrogen peroxide (colorimetric, 460 nm); format: biochemical; conditions: hemoglobin 12 mg/dl, 20 micromolar H2O2
# Method: as §1
# Uric Acid Inhibition of Substrate Oxidation by Human Hemoglobin Level of 12 mg/dl in Reaction with 20 Micromolar Hydrogen Peroxide
# Ascorbic Acid Inhibition at 1.6 mg/dl of Substrate Oxidation Induced by Human Hemoglobin Level of 12 mg//dl in Reaction with 20 Micromolar Hydrogen Peroxide
# Comments: The inhibition remained virtually complete in EXAMPLE 4 at 10 minutes of continued exposure to the hydrogen peroxide, in spite of greater absorbance increase or oxidation in the control solutions from continuing reaction of the peroxide with the iron that resided in the hemoglobin. […] He used higher concentrations of hemoglobin and hydrogen peroxide (e.g. 0.67 or 0.8 mM of hydrogen peroxide) in phosphate-saline buffer with 2 hour incubations at 37° C.
# [2] = cited from earlier work; for elevating human serum uric acid levels when given orally: humans (normal adults and gouty individuals), literature
# [3] = known in the art, in words; cited from earlier work
# [4] = intravenously, healthy humans; Chamorro A et al., 2004; cited from earlier work
# [5] = Ascorbate 1.6 mg/dL, 5 min. after H2O2, n = 4
# [6] = Ascorbate 1.6 mg/dL, 10 min. after H2O2, n = 4
# [7] = Urate 0.5 mg/dL, 5 min. after H2O2, n 4
# [8] = Urate 0.5 mg/dL, 10 min. after H2O2, n 4
# [9] = Urate 6.0 mg/dL, 10 min. after H2O2, n 4
# Chain of human hemoglobin (P69905 2-142 limits assumed): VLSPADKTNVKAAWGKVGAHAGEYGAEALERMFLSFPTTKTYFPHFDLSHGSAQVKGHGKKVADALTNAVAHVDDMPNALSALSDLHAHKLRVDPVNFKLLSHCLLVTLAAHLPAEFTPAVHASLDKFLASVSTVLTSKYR
# Chain of human hemoglobin (P68871 2-147 limits assumed): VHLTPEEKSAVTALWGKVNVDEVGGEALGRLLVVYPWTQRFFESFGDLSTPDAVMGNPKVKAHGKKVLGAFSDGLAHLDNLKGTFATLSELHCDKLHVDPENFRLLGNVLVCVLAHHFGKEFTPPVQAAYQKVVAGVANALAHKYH
structure (smiles),measurement,setting,value
"O=C1O[C@H]([C@@H](O)CO)C(O)=C1O [Ascorbate, L-ascorbic acid]",Absorbance Increase,"[1]; Ascorbate 1.6 mg/dL, 5 min. after H2O2, mean ± s.e.m., n = 4",0.000 ± 0.000
same,% Inhibition,[1]; [5],100.0 ± 0.0 %
same,% Inhibition,[1]; [6],100.0 ± 0.0 %
same,Absorbance Increase,[1]; [6],0.000 ± 0.000
same,% Inhibition,human hemoglobin; [5],100.0 ± 0.0 %
same,Absorbance Increase,human hemoglobin; [5],0.000 ± 0.000
same,% Inhibition,human hemoglobin; [6],99.8 ± 1.2 %
same,Absorbance Increase,human hemoglobin; [6],0.001 ± 0.008
"O=c1[nH]c(=O)c2[nH]c(=O)[nH]c2[nH]1 [Urate, 2,6,8-oxypurine]",Absorbance Increase,"[1]; Urate 0.5 mg/dL, 5 min. after H2O2, 460 nm, mean ± s.e.m., n 5",0.030 ± 0.003
same,% Inhibition,"[1]; Urate 0.5 mg/dL, 5 min. after H2O2, mean ± s.e.m., n 5",36.8 ± 5.3 %
same,Absorbance Increase,"[1]; Urate 0.5 mg/dL, 10 min. after H2O2, 460 nm, mean ± s.e.m., n 5",0.034 ± 0.017
same,% Inhibition,"[1]; Urate 0.5 mg/dL, 10 min. after H2O2, mean ± s.e.m., n 5",26.5 ± 5.5 %
same,Absorbance Increase,"[1]; Urate 6.0 mg/dL, 5 min. after H2O2, 460 nm, pH 7.4 saline, 25-28° Celsius, mean ± s.e.m., n 5",0.012 ± 0.003
same,% Inhibition,"[1]; Urate 6.0 mg/dL, 5 min. after H2O2, mean ± s.e.m., n 5",75.3 ± 4.8 %
same,Absorbance Increase,"[1]; Urate 6.0 mg/dL, 10 min. after H2O2, 460 nm, mean ± s.e.m., n 5",0.014 ± 0.003
same,% Inhibition,"[1]; Urate 6.0 mg/dL, 10 min. after H2O2, mean ± s.e.m., n 5",70.9 ± 4.5 %
same,% Inhibition,human hemoglobin; [7],50.7 ± 7.56 %
same,Absorbance Increase,human hemoglobin; [7],0.028 ± 0.004
same,% Inhibition,human hemoglobin; [8],38.8 ± 3.25 %
same,Absorbance Increase,human hemoglobin; [8],0.052 ± 0.009
same,Absorbance Increase,"human hemoglobin; Urate 6.0 mg/dL, 5 min. after H2O2, mean ± s.e.m., n 4",0.006 ± 0.002
same,% Inhibition,"human hemoglobin; Urate 6.0 mg/dL, 5 min. after H2O2, n 4",90.6 ± 0.90 %
same,% Inhibition,human hemoglobin; [9],80.3 ± 3.54 %
same,Absorbance Increase,human hemoglobin; [9],0.016 ± 0.005
same,elevating human serum uric acid levels when given orally,[2],ineffective
same,solubility in water,[3],difficulty soluble in water
same,tolerability of intravenous administration,[4],without untoward effects
O=c1[nH]cnc2nc[nH]c12 [hypoxanthine],raise of serum or plasma uric acid level,"[2]; about 0.9 gram given orally (0.1 mmole/kg), persons of near 70 kg, Clifford A J et al., 1976",about 2.4 mg/dL
same,elevating human serum uric acid levels when given orally,[2],effectively raise serum uric acid levels
same,solubility in water,[3],more soluble in water
O=c1[nH]c(=O)c2[nH]cnc2[nH]1 [xanthine],elevating human serum uric acid levels when given orally,[2],not
same,solubility in water,[3],difficulty soluble in water
